Measurements as given in patent US20250152719A1, “FUSED IMIDE DERIVATIVE” (Chia Tai Tianqing Pharmaceutical Group Co., Ltd., priority 2021, published 2025).
Like-named read-outs stand apart in the source and are kept apart here.

Columns and labels:
[1] = biological target: BTK(C481S) kinase (Homo sapiens (Human), UniProt Q06187, C481S); experiment: Inhibitory activity on BTK(C481S) kinase; format: biochemical; conditions: ATP 10 μM
Description: The Assay Buffer was prepared, and the composition of the Assay Buffer was 50 mM Hepes (Gibco, 15630), 10 mM MgCl2, 2 mM DTT, 1 mM EGTA, and 0.010% Tween 20. BTK(C481S) kinase (Carna Biosciences, 08-547), ATP (Sigma, A7699), and ULight-poly GT (PE, TRF0100-M) working solutions were prepared using the Assay Buffer. EDTA and Eu-labeled anti-phosphotyrosine (PT66) antibody (PE, AD0069) working solutions were prepared using the Detection Buffer. 6 μL of BTK(C481S) kinase at the corresponding concentration (final concentration: 0.005 ng/μL) was added to the compound groups and the control group, while 6 μL of the Assay Buffer was added to the blank group, and then the compounds (with the concentration set to 1000 nM at the maximum, 4-fold dilution, 7 concentration gradients) were added using a nanoliter pipettor. The mixture was incubated at room temperature for 30 min, and then 4 μL of the mixture of ATP (final concentration: 10 μM) and ULight-poly GT (final concentration: 100 nM) was added. After incubation at room temperature for 2 h, 5 μL of EDTA (final concentration: 10 mM) was added to stop the reaction, and finally 5 μL of antibody (final concentration: 2 nM) was added. After incubation at room temperature for 1 h, signal values were detected at 665/615 nM, the four-parameter analysis was performed, the dose-response curves were fit, and IC50 was calculated.

[2] = biological target: EGFR kinase (Homo sapiens (Human), UniProt P00533); experiment: Inhibitory activity on EGFR kinase; format: biochemical; conditions: ATP 5 μM
EGFR kinase, sequence (P00533 669-1210): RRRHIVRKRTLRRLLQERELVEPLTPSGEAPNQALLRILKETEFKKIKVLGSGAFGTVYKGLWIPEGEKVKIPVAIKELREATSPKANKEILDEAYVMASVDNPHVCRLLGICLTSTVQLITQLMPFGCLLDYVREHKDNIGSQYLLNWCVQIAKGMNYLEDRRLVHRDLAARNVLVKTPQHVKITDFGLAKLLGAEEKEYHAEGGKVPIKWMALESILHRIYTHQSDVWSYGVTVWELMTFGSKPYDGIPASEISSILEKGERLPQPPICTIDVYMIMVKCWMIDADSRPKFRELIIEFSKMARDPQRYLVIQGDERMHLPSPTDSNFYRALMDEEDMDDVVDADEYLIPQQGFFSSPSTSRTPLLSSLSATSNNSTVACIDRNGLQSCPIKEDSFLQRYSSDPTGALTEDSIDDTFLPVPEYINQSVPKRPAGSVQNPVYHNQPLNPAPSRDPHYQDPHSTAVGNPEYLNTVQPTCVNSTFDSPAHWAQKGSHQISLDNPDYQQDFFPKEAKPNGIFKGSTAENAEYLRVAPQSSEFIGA
Description: The Assay Buffer was prepared, and the composition of the Assay Buffer was 50 mM Hepes (Gibco, 15630), 10 mM MgCl2, 2 mM DTT, 1 mM EGTA, and 0.010% Tween 20. EGFR kinase (Carna, 08-115), ATP (Sigma, A7699), and ULight-poly GT (PE, TRF0100-M) working solutions were prepared using the Assay Buffer. EDTA and Eu-labeled anti-phosphotyrosine (PT66) antibody (PE, AD0069) working solutions were prepared using the Detection Buffer. 6 μL of EGFR kinase at the corresponding concentration (final concentration: 0.006 ng/μL) was added to the compound groups and the control group, while 6 μL of the Assay Buffer was added to the blank group, and then the compounds (with the concentration set to 1000 nM at the maximum, 4-fold dilution, 7 concentration gradients) were added using a nanoliter pipettor. The mixture was incubated at room temperature for 30 min, and then 4 μL of the mixture of ATP (final concentration: 5 μM) and ULight-poly GT (final concentration: 100 nM) was added. After incubation at room temperature for 2 h, 5 μL of EDTA (final concentration: 10 mM) was added to stop the reaction, and finally 5 μL of antibody (final concentration: 2 nM) was added. After incubation at room temperature for 1 h, signal values were detected at 665/615 nM, the four-parameter analysis was performed, the dose-response curves were fit, and IC50 was calculated.

[3] = biological target: BTK(WT) kinase (Homo sapiens (Human), UniProt Q06187); experiment: Inhibitory activity on BTK(WT) kinase; format: biochemical; conditions: ATP 10 μM
BTK(WT) kinase, sequence (Q06187 whole entry): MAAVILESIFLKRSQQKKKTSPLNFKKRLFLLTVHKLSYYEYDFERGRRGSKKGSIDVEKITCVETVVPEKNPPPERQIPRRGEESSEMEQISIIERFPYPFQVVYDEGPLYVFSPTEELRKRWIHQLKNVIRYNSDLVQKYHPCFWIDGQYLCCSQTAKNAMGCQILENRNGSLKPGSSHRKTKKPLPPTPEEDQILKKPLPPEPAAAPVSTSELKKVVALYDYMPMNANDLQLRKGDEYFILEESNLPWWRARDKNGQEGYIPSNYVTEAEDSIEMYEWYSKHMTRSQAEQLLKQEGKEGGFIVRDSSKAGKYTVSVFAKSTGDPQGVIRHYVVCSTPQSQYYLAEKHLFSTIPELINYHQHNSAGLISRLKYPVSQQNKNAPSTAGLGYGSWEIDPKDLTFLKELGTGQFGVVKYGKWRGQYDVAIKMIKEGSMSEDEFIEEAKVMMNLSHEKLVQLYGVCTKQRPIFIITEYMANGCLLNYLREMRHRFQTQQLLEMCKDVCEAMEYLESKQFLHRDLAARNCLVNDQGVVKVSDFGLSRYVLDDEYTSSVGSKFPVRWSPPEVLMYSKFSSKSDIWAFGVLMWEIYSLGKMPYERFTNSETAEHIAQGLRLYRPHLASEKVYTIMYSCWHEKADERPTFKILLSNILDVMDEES
Description: The Assay Buffer was prepared, and the composition of the Assay Buffer was 50 mM Hepes (Gibco, 15630), 10 mM MgCl2, 2 mM DTT, 1 mM EGTA, and 0.010% Tween 20. BTK(WT) kinase (Life, PR5442A), ATP (Sigma, A7699), and ULight-poly GT (PE, TRF0100-M) working solutions were prepared using the Assay Buffer. EDTA and Eu-labeled anti-phosphotyrosine (PT66) antibody (PE, AD0069) working solutions were prepared using the Detection Buffer (PE, CR97-100). 6 μL of BTK(WT) kinase at the corresponding concentration (final concentration: 0.003 ng/L) was added to the compound groups and the control group, while 6 μL of the Assay Buffer was added to the blank group, and then the compounds (with the concentration set to 1000 nM at the maximum, 4-fold dilution, 7 concentration gradients) were each added using a nanoliter pipettor. The mixture was incubated at room temperature for 30 min, and then 4 μL of the mixture of ATP (final concentration: 10 μM) and ULight-poly GT (final concentration: 100 nM) was added. After incubation at room temperature for 2 h, 5 μL of EDTA (final concentration: 10 mM) was added to stop the reaction, and finally 5 μL of antibody (final concentration: 2 nM) was added. After incubation at room temperature for 1 h, signal values were detected at 665/615 nM, the four-parameter analysis was performed, the dose-response curves were fit, and IC50 was calculated.

[4] = tested on: OCI-LY10 cells; experiment: Inhibitory activity on OCI-LY10 cell proliferation (CCK-8); format: cell-based
Summary of the method: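 Cells seeded at 1×10^5 cells/mL and incubated overnight were exposed in duplicate to final compound concentrations of 5000 nM-0.31 nM for 72 h. CCK-8 was added for 2.5 h and absorbance read at 450 nm. IC50 was obtained from four-parameter dose-response fits.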

[5] = Mouse pharmacokinetics; format: in vivo, ICR mice
Description: ICR mice weighing 18-22 g were randomized into groups of 9 after 3-5 days of acclimatization and then intragastrically given the test compound solution at a dose of 10 mg/kg. Plasma samples to be tested were prepared by taking blood from the orbit at time points of 15 min, 30 min, 1 h, 2 h, 3 h, 4 h, 6 h, 8 h, 10 h, and 24 h. 20 μL of each plasma sample to be detected and a standard curve sample were taken, and an acetonitrile solution containing an internal standard was added. […] Pharmacokinetic parameters were fitted using a non-compartmental model (see Table 5).

[6] = Homo sapiens, OCI-Ly10, 72 h incubation
[7] = ICR, mouse, plasma, iv, 1 mg/kg, Mouse i.v. 1 mpk
[8] = ICR, mouse, plasma, iv, 1 mg/kg, Mouse i.v. 1 mpk, read-out: AUC
[9] = ICR, mouse, plasma, po, 10 mg/kg, Mouse i.g. 10 mpk
[10] = ICR, mouse, plasma, po, 10 mg/kg, Mouse i.g. 10 mpk, read-out: AUC
[11] = ICR, mouse, plasma, po, 10 mg/kg, Mouse i.g. 10 mpk, read-out: Cmax

BTK(C481S) kinase, sequence (Q06187 whole entry C481S): as the sequence (Q06187 whole entry) above, with C481S counted along it

SMILES | IC50 [1] | IC50 [2] | IC50 [3] | IC50 [4, 6] | clearance [5, 7] | half-life [5, 7] | AUC [5, 8] | half-life [5, 9] | AUC [5, 10] | Cmax [5, 11] | F ([5]; Mouse i.g. 10 mpk) | IC50 ([4]; 72 h incubation) | AUC ([5]; Mouse i.g. 10 mpk) | Cmax ([5]; Mouse i.g. 10 mpk) | t1/2 ([5]; Mouse i.g. 10 mpk) | AUC ([5]; Mouse i.v. 1 mpk) | Cl ([5]; Mouse i.v. 1 mpk) | t1/2 ([5]; Mouse i.v. 1 mpk)
CN1CCN([C@@H]2CCCN(c3cnc(C(N)=O)c(Nc4ccc(C5CCN(C6CN(c7ccc8c(C9CCC(=O)NC9=O)noc8c7)C6)CC5)cc4)n3)C2)C1=O (stereo partly drawn) [Compound 10] | 19.6 nM | 3320 nM | 7.1 nM | < 0.31 nM | 2.65 mL/min/kg | 1.6 h | 6140 ng·h/mL | 2.9 h | 35600 ng·h/mL | 3850 ng/mL | 57.98% | – | – | – | – | – | – | –
CN1CCN([C@@H]2CCCN(c3cnc(C(N)=O)c(Nc4ccc(N5CCC(CN6CCc7ccc8c(C9CCC(=O)NC9=O)noc8c7CC6)CC5)cc4)n3)C2)C1=O (stereo partly drawn) [Compound 27] | 9 nM | 109 nM | 0.96 nM | < 0.31 nM | 9.33 mL/min/kg | 1.4 h | 1760 ng·h/mL | 2.4 h | 7690 ng·h/mL | 766 ng/mL | 44.0% | – | – | – | – | – | – | –
CN1CCN([C@@H]2CCCN(c3cnc(C(N)=O)c(Nc4ccc(C5CCC(N6Cc7ccc8c(C9CCC(=O)NC9=O)noc8c7C6)CC5)cc4)n3)C2)C1=O (stereo partly drawn) [Compound 33] | 22 nM | 785 nM | 11 nM | – | – | – | – | – | – | – | 26.0% | < 0.31 nM | 20971 ng·h/mL | 1555 ng/mL | 3.2 h | 7987 ng·h/mL | 2.17 mL/min/kg | 2.6 h
